According to PubChem BioAssay (NCI):
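Where inhibition never reached the appropriate level, the endpoint shown equals the highest concentration tested. Otherwise, values were interpolated linearly from a five-concentration, 48-hour dose response in 96-well plates. TGI: total growth inhibition.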

Assays:
Assay in all cases: NCI tumour cell line growth inhibition, 48 h
[1] = tested on: ACHN renal
[2] = tested on: KM12 colon
[3] = tested on: A549 NSCLC
[4] = tested on: SR leukemia
[5] = tested on: MDA-MB-435
[6] = tested on: NCI-H23 lung
[7] = tested on: HOP-62 NSCLC
[8] = tested on: SNB-19 CNS
[9] = tested on: OVCAR-8 ovarian
[10] = tested on: SK-MEL-28 melanoma
[11] = tested on: SW-620 colon
[12] = tested on: T-47D breast
[13] = tested on: IGROV1 ovarian
[14] = tested on: MOLT-4 leukemia
[15] = tested on: M14 melanoma
[16] = tested on: MCF7 breast
[17] = tested on: SK-MEL-5 melanoma
[18] = tested on: OVCAR-5 ovarian
[19] = tested on: NCI/ADR-RES ovarian
[20] = tested on: LOX IMVI melanoma
[21] = tested on: SF-295 CNS
[22] = tested on: RPMI-8226 leukemia
[23] = tested on: DU-145 prostate
[24] = tested on: A498 renal
[25] = tested on: NCI-H460 lung
[26] = tested on: COLO 205 colon
[27] = tested on: HOP-92 NSCLC
[28] = tested on: BT-549 breast
[29] = tested on: SF-268 CNS
[30] = tested on: CAKI-1 renal
[31] = tested on: MDA-N
[32] = tested on: RXF 393 renal
[33] = tested on: SK-MEL-2 melanoma
[34] = tested on: HL-60(TB) leukemia
[35] = tested on: K-562 leukemia
[36] = tested on: NCI-H226 lung
[37] = tested on: MDA-MB-231 breast
[38] = tested on: EKVX NSCLC
[39] = tested on: SF-539 CNS
[40] = tested on: UO-31 renal
[41] = tested on: MALME-3M melanoma
[42] = tested on: UACC-62 melanoma
[43] = tested on: SNB-75 CNS
[44] = tested on: HCT-116 colon
[45] = tested on: HCT-15 colon
[46] = tested on: U251 CNS
[47] = tested on: HCC-2998 colon
[48] = tested on: UACC-257 melanoma
[49] = tested on: HS 578T breast
[50] = tested on: OVCAR-4 ovarian
[51] = tested on: NCI-H522 lung
[52] = tested on: PC-3 prostate
[53] = tested on: OVCAR-3 ovarian
[54] = tested on: SK-OV-3 ovarian
[55] = tested on: 786-0 renal
[56] = tested on: SN12C renal
[57] = tested on: HT29 colon
[58] = tested on: TK-10 renal
[59] = tested on: CCRF-CEM leukemia

Compound Nc1c2c(nc3ccccc13)CCCc1ccccc1-2 has a TGI [1] of 23 µM, a TGI [2] of 31.2 µM and a TGI [3] of 49 µM. For the same compound, the TGI [4] was over 100 µM, the TGI [5] was 24.7 µM and the TGI [6] was over 100 µM. It also gave a TGI [7] of 28 µM, a TGI [8] of 52.9 µM and a TGI [9] of 30.8 µM. The TGI [10] was 25 µM, the TGI [11] was 26.6 µM and the TGI [12] was 37.5 µM. The TGI [13] was 26.3 µM, the TGI [14] was over 100 µM and the TGI [15] was 21.6 µM. The TGI [16] was 29.2 µM, the TGI [17] was 21 µM and the TGI [18] was 34.6 µM. For the same compound, the TGI [19] was 69.7 µM, the TGI [20] was 22.1 µM and the TGI [21] was 24 µM. It also gave a TGI [22] of 30.4 µM, a TGI [23] of 80.3 µM and a TGI [24] of 22 µM. The TGI [25] was 14.5 µM, the TGI [26] was 24.4 µM and the TGI [27] was 22.6 µM. For the same compound, the TGI [28] was over 100 µM, the TGI [29] was 38.4 µM and the TGI [30] was 40.9 µM. It also gave a TGI [31] of 17.2 µM, a TGI [32] of 24.7 µM and a TGI [33] of 27.1 µM. It also gave a TGI [34] of 21.4 µM, a TGI [35] of over 100 µM and a TGI [36] of 45.4 µM. For the same compound, the TGI [37] was 19.8 µM, the TGI [38] was 38.9 µM and the TGI [39] was 25.9 µM. It also gave a TGI [40] of 26.3 µM, a TGI [41] of 33.5 µM and a TGI [42] of 20.8 µM. The TGI [43] was 26.6 µM, the TGI [44] was 19.1 µM and the TGI [45] was 35.5 µM. It also gave a TGI [46] of 24.7 µM, a TGI [47] of 4.61 µM and a TGI [48] of 27.1 µM. The TGI [49] was 52 µM, the TGI [50] was 84.8 µM and the TGI [51] was 37.2 µM. The TGI [52] was 40.5 µM, the TGI [53] was over 100 µM and the TGI [54] was over 100 µM. It also gave a TGI [55] of 24.9 µM, a TGI [56] of 39.5 µM and a TGI [57] of 22.5 µM. It also gave a TGI [58] of 18.8 µM.

Compound NC(=O)C1CCCN1C(=O)N(CCCl)N=O (stereo not drawn) has a TGI [1] of over 100 µM, a TGI [2] of over 100 µM and a TGI [3] of over 100 µM. For the same compound, the TGI [4] was over 100 µM, the TGI [5] was over 100 µM and the TGI [6] was over 100 µM. It also gave a TGI [7] of over 100 µM, a TGI [8] of over 100 µM and a TGI [9] of over 100 µM. For the same compound, the TGI [10] was over 100 µM, the TGI [11] was over 100 µM and the TGI [12] was over 100 µM. For the same compound, the TGI [13] was over 100 µM, the TGI [14] was over 100 µM and the TGI [15] was over 100 µM. The TGI [16] was over 100 µM, the TGI [17] was over 100 µM and the TGI [18] was over 100 µM. It also gave a TGI [19] of over 100 µM, a TGI [20] of over 100 µM and a TGI [21] of over 100 µM. It also gave a TGI [22] of over 100 µM, a TGI [23] of over 100 µM and a TGI [24] of over 100 µM. It also gave a TGI [25] of over 100 µM, a TGI [26] of over 100 µM and a TGI [27] of over 100 µM. It also gave a TGI [28] of over 100 µM, a TGI [29] of over 100 µM and a TGI [30] of over 100 µM. It also gave a TGI [31] of over 100 µM, a TGI [33] of over 100 µM and a TGI [34] of over 100 µM. It also gave a TGI [59] of over 100 µM, a TGI [35] of over 100 µM and a TGI [36] of over 100 µM. It also gave a TGI [37] of over 100 µM, a TGI [38] of over 100 µM and a TGI [39] of over 100 µM. The TGI [40] was over 100 µM, the TGI [41] was over 100 µM and the TGI [42] was over 100 µM. It also gave a TGI [43] of 72.8 µM, a TGI [44] of over 100 µM and a TGI [45] of over 100 µM. The TGI [46] was over 100 µM, the TGI [47] was over 100 µM and the TGI [48] was over 100 µM. For the same compound, the TGI [49] was over 100 µM, the TGI [50] was over 100 µM and the TGI [51] was over 100 µM. It also gave a TGI [52] of over 100 µM, a TGI [53] of over 100 µM and a TGI [54] of over 100 µM. It also gave a TGI [55] of over 100 µM, a TGI [56] of over 100 µM and a TGI [57] of over 100 µM. The TGI [58] was over 100 µM.

Compound CC(=O)c1ccccc1NS(=O)(=O)c1ccc2nc(C)n(NS(=O)(=O)c3ccccc3C(C)=O)c(=O)c2c1 has a TGI [1] of over 100 µM, a TGI [2] of over 100 µM and a TGI [4] of over 100 µM. For the same compound, the TGI [5] was over 100 µM, the TGI [6] was over 100 µM and the TGI [7] was over 100 µM. It also gave a TGI [8] of over 100 µM, a TGI [9] of over 100 µM and a TGI [10] of over 100 µM. For the same compound, the TGI [11] was over 100 µM, the TGI [12] was over 100 µM and the TGI [13] was over 100 µM. It also gave a TGI [14] of over 100 µM, a TGI [15] of over 100 µM and a TGI [16] of over 100 µM. The TGI [17] was over 100 µM, the TGI [18] was over 100 µM and the TGI [19] was over 100 µM. The TGI [20] was over 100 µM, the TGI [21] was over 100 µM and the TGI [22] was over 100 µM. For the same compound, the TGI [23] was over 100 µM, the TGI [24] was over 100 µM and the TGI [25] was over 100 µM. It also gave a TGI [26] of over 100 µM, a TGI [27] of over 100 µM and a TGI [28] of over 100 µM. The TGI [29] was over 100 µM, the TGI [30] was over 100 µM and the TGI [31] was over 100 µM. It also gave a TGI [32] of over 100 µM, a TGI [33] of over 100 µM and a TGI [34] of over 100 µM. It also gave a TGI [59] of over 100 µM, a TGI [35] of over 100 µM and a TGI [36] of over 100 µM. For the same compound, the TGI [37] was over 100 µM, the TGI [38] was over 100 µM and the TGI [39] was over 100 µM. It also gave a TGI [40] of over 100 µM, a TGI [41] of over 100 µM and a TGI [42] of over 100 µM. The TGI [43] was over 100 µM, the TGI [44] was over 100 µM and the TGI [45] was over 100 µM. For the same compound, the TGI [46] was over 100 µM, the TGI [47] was over 100 µM and the TGI [48] was over 100 µM. It also gave a TGI [49] of over 100 µM, a TGI [50] of over 100 µM and a TGI [51] of over 100 µM. For the same compound, the TGI [52] was over 100 µM, the TGI [53] was over 100 µM and the TGI [54] was over 100 µM. It also gave a TGI [55] of over 100 µM, a TGI [56] of over 100 µM and a TGI [57] of over 100 µM. For the same compound, the TGI [58] was over 100 µM.

For Cc1cc(C)c2c(=O)cc(-c3ccc4ccccc4c3)[nH]c2n1, the TGI [1] was over 100 µM, the TGI [2] was over 52.7 µM and the TGI [3] was over 100 µM. The TGI [4] was 18.6 µM, the TGI [5] was 12 µM and the TGI [6] was over 100 µM. It also gave a TGI [7] of over 93.8 µM, a TGI [8] of over 100 µM and a TGI [9] of over 100 µM. It also gave a TGI [10] of over 100 µM, a TGI [11] of over 100 µM and a TGI [12] of over 100 µM. For the same compound, the TGI [13] was 99.7 µM, the TGI [14] was 12.9 µM and the TGI [15] was 67.5 µM. It also gave a TGI [16] of over 100 µM, a TGI [17] of 9.42 µM and a TGI [18] of over 100 µM. It also gave a TGI [19] of over 63.9 µM, a TGI [20] of over 74.9 µM and a TGI [21] of over 93 µM. The TGI [22] was 27.8 µM, the TGI [23] was over 100 µM and the TGI [24] was 24.1 µM. The TGI [25] was over 100 µM, the TGI [26] was 48.1 µM and the TGI [27] was 78.8 µM. It also gave a TGI [28] of over 100 µM, a TGI [29] of over 100 µM and a TGI [30] of over 100 µM. The TGI [31] was 17.2 µM, the TGI [32] was over 100 µM and the TGI [33] was over 100 µM. For the same compound, the TGI [34] was 16.4 µM, the TGI [59] was 37.7 µM and the TGI [35] was 4.26 µM. It also gave a TGI [36] of over 100 µM, a TGI [37] of over 100 µM and a TGI [38] of over 100 µM. For the same compound, the TGI [39] was over 93.4 µM, the TGI [40] was over 100 µM and the TGI [41] was over 100 µM. It also gave a TGI [42] of over 100 µM, a TGI [43] of over 90.7 µM and a TGI [44] of over 69.9 µM. The TGI [45] was over 100 µM, the TGI [46] was 65.7 µM and the TGI [47] was over 81.8 µM. For the same compound, the TGI [48] was over 59.6 µM, the TGI [49] was over 100 µM and the TGI [50] was over 100 µM. For the same compound, the TGI [51] was 72.5 µM, the TGI [52] was over 100 µM and the TGI [53] was over 100 µM. It also gave a TGI [54] of over 100 µM, a TGI [55] of over 100 µM and a TGI [56] of over 100 µM. The TGI [57] was 59.8 µM and the TGI [58] was over 100 µM.
